According to patent US4562275A, “Antitumor platinum complexes” (priority 1984, dated 1985):
Where “and” joins values, the source holds several entries; their conditions need not be identical. Identical values can stand only once.

Key:
BDF1 mice [1] = experiment: Deaths (D.14) in the BUN test in BDF1 mice; assay type: in vivo, mouse
Source text: The toxicity studies were done in male BDF1 mice (25-29 gm) and castrated male Fitch ferrets (1-1.5 kg).
Groups of 40-50 mice/experiment were bled from the retro-orbital plexus and individual BUN values determined by a modified urease method using a Centrifichem System 400. The test complex, or saline for controls, was given at several dose levels (5-10 mice/dose) in single ip injections. The highest dose of the complex usually corresponded to its LD50 value or 1.5 times its optimal single dose in the L1210 experiment. At least two lower doses were included to evaluate dose-related effects. The BUN values were measured 4 and 7 days after dosing. BUN values ≥30 mg% were considered indicative of drug-induced nephrotoxicity.

Solubility (Table 3) = settings: medium not given
BDF1 mice [2] = experiment: Nephrotoxicity: effect on blood urea nitrogen (BUN) in BDF1 mice
B16 melanoma = experiment: Antitumor activity vs ip B16 melanoma in mice; assay type: in vivo, mouse; design: O.D.: unit not given here
C26 carcinoma = experiment: Antitumor activity vs ip C26 (colon 26) carcinoma in mice; assay type: in vivo, mouse; design: O.D.: unit not given here
BDF1 mice [3] = experiment: Single-dose ip LD50 in BDF1 mice; assay type: in vivo, mouse; settings: 30 days observation
Method: Single-dose ip LD50 values were determined in BDF1 mice for the indicated complexes.

[4] = Solubility stated in the preparation examples
L1210 leukemia = experiment: Antitumor activity vs transplantable L1210 leukemia (ip) in mice; assay type: in vivo, mouse; settings: for Max % T/C: dying mice only
M109 carcinoma = experiment: Antitumor activity vs ip M109 (Madison 109 lung) carcinoma in mice; assay type: in vivo, mouse; design: O.D.: unit not given here
[5] = test system: L1210/CDDP (cisplatin resistant line of L1210 leukemia); experiment: Antitumor activity vs cisplatin-resistant L1210 leukemia (L1210/CDDP) in mice; assay type: in vivo, mouse

hydroxymethylphosphonato trans(-)-1,2-diaminocyclohexane platinum(II) [Example 12]
Deaths D.14 (BDF1 mice [1]; 44 mg/kg ip): 6/10 | Deaths D.14 (BDF1 mice [1]; 59 mg/kg ip): 9/10 | Deaths D.14 (BDF1 mice [1]; 79 mg/kg ip): 10/10 | Solubility (Solubility (Table 3)): 3 mg/mL | Incidence of BUN > 30 mg % (BDF1 mice [2]; 44 mg/kg ip): 1/6 | Incidence of BUN > 30 mg % (BDF1 mice [2]; 59 mg/kg ip): 0/4 | BUN↑, Mouse (BDF1 mice [2]; effect relative to cisplatin): 0 | O.D. (B16 melanoma; ip B16 (3×; 9×)): 4 | Max. % T/C (B16 melanoma; ip B16 (3×; 9×): q4d × 3 or qd 1-9, ip, dying mice only): 229% | Ratio of Max. % T/C Complex/cDDP (B16 melanoma; ip B16, relative to concomitant cisplatin): 1.08 | O.D. (C26 carcinoma; ip C26 (2×; 4×)): 24 | Max. % T/C (C26 carcinoma; ip C26 (2×; 4×): q3d × 2 or qd 1-4, ip, dying mice only): 125% | Ratio of Max. % T/C Complex/cDDP (C26 carcinoma; ip C26, relative to concomitant cisplatin): .87 | LD50 (BDF1 mice [3]): 79 mg/kg/ip | Solubility in methanol ([4]; methanol): soluble | Solubility in water ([4]; water): soluble | O.D. (optimal dose) (L1210 leukemia; L1210, QD 1 → 5, ip): 3 mg/kg/inj | Max % T/C (L1210 leukemia; L1210, QD 1 → 5, ip): 293% | Max % T/C (L1210 leukemia; L1210, single dose Day 1, ip, (a), (b) determinations): 221% and 275% | O.D. (optimal dose) (L1210 leukemia; L1210, single dose Day 1, ip, dose giving the Max % T/C, same order): 24 mg/kg/inj and 21 mg/kg/inj | OD (optimum dose) (L1210 leukemia; optimum dose from the L1210 test): 24 mg/kg/ip | O.D. (M109 carcinoma; ip M109 (2×; 4×)): 18 | Max. % T/C (M109 carcinoma; ip M109 (2×; 4×): q3d × 2 or qd 1-4, ip, dying mice only): 135% | Ratio of Max. % T/C Complex/cDDP (M109 carcinoma; ip M109, relative to concomitant cisplatin): .95 | Cures/total ([5]; Day 1): 2/6 | O.D. (optimal dose) ([5]; Day 1): 14 mg/kg/inj | Max % T/C ([5]; Day 1, dying mice only): 340%
